One data set addresses Coagulation factor X (Homo sapiens, UniProt P00742). Kind of data set: Inhibition of purified human factor Xa.
Data set [1] is described as follows: Apparent permeability from apical to basolateral side of the human Caco2 cells. To be noted: caco-2. The format is ADME, cell-based. (In general: Caco-2 cells form a polarised layer with tight junctions and transporters.)
A further data set concerns Plasma. As to the kind of experiment: Anticoagulant activity in human plasma assessed as concentration required to double prothrombin time. Format: functional.
Data set [2] in a line: Clearance in dog at 0.5 mg/kg, iv and 0.2 mg/kg, po administered as cassette dosing. The format is ADME, organism-based, Canis lupus familiaris. To be noted: in vivo.
Data set [3] can be described thus: Volume of distribution at steady state in dog at 0.5 mg/kg, iv and 0.2 mg/kg, po administered as cassette dosing. To be noted: in vivo, read-out: Vdss. The format is ADME, organism-based, Canis lupus familiaris.
Data set [4] can be described thus: Half life in dog at 0.2 mg/kg, po administered as cassette dosing. To be noted: in vivo. Details: dose 0.2 mg/kg, route oral. The format is ADME, organism-based, Canis lupus familiaris.
The nature of data set [5]: Oral bioavailability in dog at 0.2 mg/kg administered as cassette dosing. To be noted: in vivo. The format is ADME, organism-based, Canis lupus familiaris.
The target in the next data set is Trypsin (Homo sapiens, UniProt P07477+P07478+P35030). As to the kind of experiment: Inhibition of human trypsin. The format is protein assay.
The target of the next data set is Prothrombin (Homo sapiens, UniProt P00734). Kind of data set: Inhibition of human thrombin.
Another data set deals with Plasma kallikrein (Homo sapiens, UniProt P03952). Kind of data set: Inhibition of human plasma kallikrein.
Plasma kallikrein, sequence (P03952 20-390 limits assumed): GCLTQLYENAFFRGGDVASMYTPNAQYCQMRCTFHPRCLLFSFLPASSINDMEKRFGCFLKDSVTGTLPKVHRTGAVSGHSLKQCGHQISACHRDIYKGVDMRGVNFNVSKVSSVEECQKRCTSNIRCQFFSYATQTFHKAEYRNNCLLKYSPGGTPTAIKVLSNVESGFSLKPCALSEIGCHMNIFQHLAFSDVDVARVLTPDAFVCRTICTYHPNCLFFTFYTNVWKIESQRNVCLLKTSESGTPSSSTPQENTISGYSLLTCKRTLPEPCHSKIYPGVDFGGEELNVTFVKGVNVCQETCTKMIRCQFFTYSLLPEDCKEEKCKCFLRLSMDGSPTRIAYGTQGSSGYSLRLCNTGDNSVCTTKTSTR
Plasma kallikrein, sequence (P03952 391-638 limits assumed): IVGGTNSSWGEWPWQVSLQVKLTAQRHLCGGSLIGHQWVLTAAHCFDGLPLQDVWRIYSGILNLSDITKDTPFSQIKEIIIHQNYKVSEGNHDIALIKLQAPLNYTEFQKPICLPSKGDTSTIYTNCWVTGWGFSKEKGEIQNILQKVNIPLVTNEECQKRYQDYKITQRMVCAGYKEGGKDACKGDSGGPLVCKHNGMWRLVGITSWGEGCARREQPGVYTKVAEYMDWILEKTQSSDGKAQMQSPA
Data set [6] in a line: Inhibition of human chymotrypsin.
The target in data set [7] is Vitamin K-dependent protein C (Homo sapiens, UniProt P04070). As to the kind of experiment: Inhibition of human activated protein C.
Vitamin K-dependent protein C, sequence (P04070 43-197 limits assumed): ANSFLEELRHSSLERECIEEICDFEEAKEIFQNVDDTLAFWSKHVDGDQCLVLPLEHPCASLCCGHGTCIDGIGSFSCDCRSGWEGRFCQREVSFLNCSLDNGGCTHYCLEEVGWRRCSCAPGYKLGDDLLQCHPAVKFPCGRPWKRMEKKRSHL
Vitamin K-dependent protein C, sequence (P04070 212-461 limits assumed): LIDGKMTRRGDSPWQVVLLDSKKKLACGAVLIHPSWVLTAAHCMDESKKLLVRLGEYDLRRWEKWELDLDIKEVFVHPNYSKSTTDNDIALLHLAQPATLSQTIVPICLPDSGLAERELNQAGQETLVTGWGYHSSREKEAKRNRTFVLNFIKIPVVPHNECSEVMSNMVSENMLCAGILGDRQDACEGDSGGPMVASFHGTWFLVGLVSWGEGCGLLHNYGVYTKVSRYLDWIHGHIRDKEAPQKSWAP
The target of a further data set is Coagulation factor IX (Homo sapiens, UniProt P00740). Kind of data set: Inhibition of human factor 9a.
Coagulation factor IX, sequence (P00740 47-191 limits assumed): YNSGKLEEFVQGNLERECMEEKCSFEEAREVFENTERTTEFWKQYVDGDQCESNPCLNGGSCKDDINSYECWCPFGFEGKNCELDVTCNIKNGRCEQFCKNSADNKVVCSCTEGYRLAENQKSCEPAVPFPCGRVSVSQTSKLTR
Coagulation factor IX, sequence (P00740 227-461 limits assumed): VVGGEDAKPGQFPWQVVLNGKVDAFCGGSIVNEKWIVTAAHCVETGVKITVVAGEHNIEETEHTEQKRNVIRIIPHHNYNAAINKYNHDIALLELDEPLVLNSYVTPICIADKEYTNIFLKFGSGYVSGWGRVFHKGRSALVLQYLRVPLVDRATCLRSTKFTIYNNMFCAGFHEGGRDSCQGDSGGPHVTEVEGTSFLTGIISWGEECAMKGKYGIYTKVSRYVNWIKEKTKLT
The nature of data set [8]: Inhibition of human factor 7a.
The target of the next data set is Coagulation factor XI (Homo sapiens, UniProt P03951). As to the kind of experiment: Inhibition of human factor 11a.
Coagulation factor XI, sequence (P03951 19-387 limits assumed): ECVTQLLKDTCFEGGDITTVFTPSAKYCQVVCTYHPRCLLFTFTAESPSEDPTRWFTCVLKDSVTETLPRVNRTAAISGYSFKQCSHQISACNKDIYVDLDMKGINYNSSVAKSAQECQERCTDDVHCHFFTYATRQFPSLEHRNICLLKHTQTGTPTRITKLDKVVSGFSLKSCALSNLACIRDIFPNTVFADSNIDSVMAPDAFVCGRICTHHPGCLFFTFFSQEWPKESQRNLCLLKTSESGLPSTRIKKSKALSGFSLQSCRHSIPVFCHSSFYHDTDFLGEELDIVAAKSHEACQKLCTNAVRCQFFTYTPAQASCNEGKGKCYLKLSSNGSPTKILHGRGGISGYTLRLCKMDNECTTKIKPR
Coagulation factor XI, sequence (P03951 388-625 limits assumed): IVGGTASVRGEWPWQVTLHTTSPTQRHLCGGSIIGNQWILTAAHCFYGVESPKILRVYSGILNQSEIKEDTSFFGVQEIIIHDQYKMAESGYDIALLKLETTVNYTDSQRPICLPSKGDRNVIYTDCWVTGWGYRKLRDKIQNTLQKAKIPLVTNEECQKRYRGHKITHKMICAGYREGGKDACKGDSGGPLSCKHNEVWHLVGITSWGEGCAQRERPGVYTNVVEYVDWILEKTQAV
Data set [9] addresses Urokinase-type plasminogen activator (Homo sapiens, UniProt P00749). As to the kind of experiment: Inhibition of human urokinase.
The target of data set [10] is Tissue-type plasminogen activator (Homo sapiens, UniProt P00750). Kind of data set: Inhibition of human tissue plasminogen activator.
Tissue-type plasminogen activator, sequence (P00750 whole entry): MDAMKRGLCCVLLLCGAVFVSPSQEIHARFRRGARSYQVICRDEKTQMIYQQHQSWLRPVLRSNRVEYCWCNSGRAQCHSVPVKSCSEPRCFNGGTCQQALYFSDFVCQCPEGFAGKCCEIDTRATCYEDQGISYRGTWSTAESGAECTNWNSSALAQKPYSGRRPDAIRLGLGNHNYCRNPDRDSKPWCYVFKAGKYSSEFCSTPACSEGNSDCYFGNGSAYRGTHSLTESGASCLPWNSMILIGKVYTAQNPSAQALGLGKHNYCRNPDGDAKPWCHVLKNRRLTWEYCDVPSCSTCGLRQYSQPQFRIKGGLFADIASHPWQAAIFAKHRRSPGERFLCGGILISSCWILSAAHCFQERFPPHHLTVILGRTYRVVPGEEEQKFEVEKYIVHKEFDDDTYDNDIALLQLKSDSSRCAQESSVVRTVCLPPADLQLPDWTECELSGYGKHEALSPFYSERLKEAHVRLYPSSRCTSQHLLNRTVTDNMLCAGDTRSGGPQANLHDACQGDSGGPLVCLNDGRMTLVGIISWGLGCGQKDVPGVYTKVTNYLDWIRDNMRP

The source of these data is ChEMBL document CHEMBL3351793, “Orally bioavailable factor Xa inhibitors containing alpha-substituted gem-dimethyl P4 moieties” (Bioorg Med Chem Lett, 2014).

Molecules are shown by their SMILES. Bounds are passed on as bounds.

Coagulation factor X, sequence (P00742 41-179 limits assumed): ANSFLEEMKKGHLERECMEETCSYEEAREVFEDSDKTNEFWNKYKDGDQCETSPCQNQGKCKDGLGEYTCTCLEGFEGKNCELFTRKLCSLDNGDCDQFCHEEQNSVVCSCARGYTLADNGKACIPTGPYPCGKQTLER
Coagulation factor X, sequence (P00742 235-488 limits assumed): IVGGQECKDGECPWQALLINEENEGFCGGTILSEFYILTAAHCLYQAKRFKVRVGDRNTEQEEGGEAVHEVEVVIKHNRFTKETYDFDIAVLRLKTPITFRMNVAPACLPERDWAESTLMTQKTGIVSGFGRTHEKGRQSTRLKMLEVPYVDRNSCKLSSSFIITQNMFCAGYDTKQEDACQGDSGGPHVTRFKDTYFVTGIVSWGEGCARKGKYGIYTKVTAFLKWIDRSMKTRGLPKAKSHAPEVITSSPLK

The Ki is the dissociation constant of the complex between target and ligand, obtained from inhibition or displacement. High values mean weaker binding, low ones tighter binding. As a reminder, the Papp is a coefficient for how fast a substance crosses the barrier. In the case of `COc1ccc(-n2nc(C(N)=O)c3c2C(=O)N(c2ccc(C(C)(C)CNC4CC4)cc2)CC3)cc1`, the Ki at Coagulation factor X amounted to 0.05 nM. Besides, the Papp in [1] is 2.8 ×10⁻⁶ cm/s. In addition, the Activity in the data set with Plasma turned out to be 0.68 µM.
In turn, `COc1ccc(-n2nc(S(C)(=O)=O)c3c2C(=O)N(c2ccc(C(C)(C)CO)cc2)CC3)cc1` had an inhibitory constant (Ki) on Coagulation factor X of 1.01 nM. Moreover, the Papp in [1] amounted to 3.6 ×10⁻⁶ cm/s. Moreover, the Activity with Plasma is 3.9 µM.
What is called half-life is the time needed for the level to fall by half in the phase considered. The low end stands for rapid decline, the high end for slow decline. The term bioavailability denotes the share of a dose that reaches the circulation, judged against a reference dose that is usually intravenous. `COc1ccc(-n2nc(C(N)=O)c3c2C(=O)N(c2ccc(C(C)(C)CN(C)C)cc2)CC3)cc1` had an inhibition constant Ki at Coagulation factor X of 0.07 nM. Moreover, the apparent permeability (Papp) in data set [1] was 5.9 ×10⁻⁶ cm/s. In data set [2], this compound had a clearance of 84 mL/min/kg. Moreover, in data set [3], the Vd was 6.57 L/kg. This compound gave a half-life in [4] of 1.04 h. The bioavailability in data set [5] turned out to be 41%. Also, in the data set with Plasma, the Activity worked out at 0.45 µM.
With `COc1ccc(-n2nc(S(C)(=O)=O)c3c2C(=O)N(c2ccc(C(C)(C)CN4CCOCC4)cc2)CC3)cc1`, affinity on Coagulation factor X was put at a Ki of 0.32 nM. For the same compound, in data set [1], the apparent permeability coefficient (Papp) was determined as 17 ×10⁻⁶ cm/s. For the same compound, in data set [2], the clearance is 21.3 mL/min/kg. Also, the Vd in [3] was found to be 10.1 L/kg. In addition, the half-life in data set [4] was 4.18 h. In data set [5], the bioavailability was found to be 13%. For the same compound, in the data set with Plasma, the Activity was determined as 3.7 µM.
Take `COc1ccc(-n2nc(S(C)(=O)=O)c3c2C(=O)N(c2ccc(C(C)(C)CN4CCCC4)cc2)CC3)cc1`: the Ki on Coagulation factor X worked out at 0.24 nM. In addition, in data set [1], the Papp was 4.3 ×10⁻⁶ cm/s. The compound also gave a clearance in data set [2] of 36.7 mL/min/kg. Besides, the Vd in data set [3] turned out to be 5.5 L/kg. In addition, the half-life in data set [4] was 1.4 h. The bioavailability in data set [5] turned out to be 10%. Further, the Activity with Plasma came to 0.92 µM.
`COc1ccc(-n2nc(C(N)=O)c3c2C(=O)N(c2ccc(N4CCCCC4=O)cc2)CC3)cc1` [APIXABAN] gave a clearance in data set [2] of 0.333 mL/min/kg. Besides, in data set [3], the Vd came out at 0.2 L/kg.
The compound `COc1ccc(-n2nc(C(N)=O)c3c2C(=O)N(c2ccc(C(C)(C)CN4CCOCC4)cc2)CC3)cc1` yielded an inhibition constant (Ki) at Coagulation factor X of 0.06 nM. Further, in [1], the apparent permeability coefficient (Papp) is 17 ×10⁻⁶ cm/s. This compound showed a clearance in [2] of 29.3 mL/min/kg. In addition, the Vd in data set [3] was 5.01 L/kg. This compound also had a half-life in [4] of 2.8 h. Also, the bioavailability in [5] came out at 10%. In addition, the Activity in the data set on Plasma stood at 3.8 µM.
`COc1ccc(-n2nc(C(N)=O)c3c2C(=O)N(c2ccc(C(C)(C)O)cc2)CC3)cc1` had a Ki at Coagulation factor X of 9.27 nM.
`COc1ccc(-n2nc(S(C)(=O)=O)c3c2C(=O)N(c2ccc(C(C)(C)CN(C)C)cc2)CC3)cc1` had an inhibition constant Ki at Coagulation factor X of 0.11 nM. Also, the Papp in data set [1] was found to be 4.1 ×10⁻⁶ cm/s. The same compound showed a clearance in data set [2] of 64.3 mL/min/kg. In addition, the Vd in data set [3] is 7.3 L/kg. In data set [4], this compound showed a half-life of 1.86 h. In data set [5], this compound yielded a bioavailability of 34%. For the same compound, in the data set with Plasma, the Activity was found to be 0.67 µM.
`COc1ccc(-n2nc(C(N)=O)c3c2C(=O)N(c2ccc(C(C)(C)N(C)C)cc2)CC3)cc1` displayed an inhibition constant (Ki) on Coagulation factor X of 0.2 nM. The apparent permeability coefficient (Papp) in [1] came to 1.1 ×10⁻⁶ cm/s. The Activity in the data set with Plasma turned out to be 0.96 µM.
For `COc1ccc(-n2nc(C(N)=O)c3c2C(=O)N(c2ccc(C(C)(C)CN4CCCCC4=O)cc2)CC3)cc1`, in that order: 1.5 nM, 8.3 ×10⁻⁶ cm/s and 7.4 µM.
For `COc1ccc(-n2nc(C(N)=O)c3c2C(=O)N(c2ccc(C(C)(C)C#N)cc2)CC3)cc1`, in that order: 1.22 nM, 18 ×10⁻⁶ cm/s and 3.4 µM.
At Coagulation factor X, `COc1ccc(-n2nc(C(N)=O)c3c2C(=O)N(c2ccc(C(C)(C)S(C)(=O)=O)cc2)CC3)cc1` showed an inhibitory constant (Ki) of 0.48 nM. For the same compound, the Papp in [1] stood at 1 ×10⁻⁶ cm/s. Further, the clearance in [2] is 5.33 mL/min/kg. For the same compound, the Vd in data set [3] stood at 0.51 L/kg. Also, the half-life in [4] was 1.7 h. In [5], this compound returned a bioavailability of 79%. Besides, in the data set with Plasma, the Activity came to 3.9 µM.
In turn, `COc1ccc(-n2nc(C(N)=O)c3c2C(=O)N(c2ccc(C(C)(C)N4CCCC4)cc2)CC3)cc1` showed an inhibition constant Ki on Coagulation factor X of 0.07 nM. Moreover, the Papp in [1] stood at 1.7 ×10⁻⁶ cm/s. The compound further had a clearance in [2] of 127 mL/min/kg. Also, in [3], the Vd stood at 12 L/kg. Also, the Activity in the data set on Plasma worked out at 0.81 µM.
On to `COc1ccc(-n2nc(C(N)=O)c3c2C(=O)N(c2ccc(C(C)(C)CN)cc2)CC3)cc1`, for which the inhibition constant (Ki) at Coagulation factor X amounted to 0.15 nM. In addition, the apparent permeability (Papp) in [1] came out at 0.7 ×10⁻⁶ cm/s. The same compound showed a clearance in [2] of 56 mL/min/kg. Besides, the Vd in [3] turned out to be 11.8 L/kg. Moreover, the half-life in [4] was 3.33 h. Further, in data set [5], the bioavailability amounted to 44%. Further, the Activity in the data set on Plasma amounted to 0.69 µM.
Consider `COc1ccc(-n2nc(C(N)=O)c3c2C(=O)N(c2ccc(C(C)(C)CO)cc2)CC3)cc1`, for which the Ki at Coagulation factor X was 0.66 nM; at Trypsin, > 15000 nM; on Prothrombin it was 2580 nM; on Plasma kallikrein, > 11000 nM; in data set [6], > 40000 nM; in data set [7], > 37600 nM. The inhibition constant (Ki) at Coagulation factor IX is > 15000 nM; in data set [8], > 15000 nM; on Coagulation factor XI, > 15000 nM; in data set [9], > 13000 nM; in [10], > 43000 nM. In addition, the Papp in [1] turned out to be 5.8 ×10⁻⁶ cm/s. In [2], the clearance is 16.3 mL/min/kg. In addition, in data set [3], the Vd amounted to 3.02 L/kg. The half-life in [4] was 4.95 h. This compound showed a bioavailability in data set [5] of 50%. Moreover, the Activity with Plasma was 3.8 µM.
The compound `COc1ccc(-n2nc(C(N)=O)c3c2C(=O)N(c2ccc(C(C)(C)CN4CCCC4)cc2)CC3)cc1` had a Ki on Coagulation factor X of 0.05 nM. In addition, the Papp in data set [1] came to 5.6 ×10⁻⁶ cm/s. For the same compound, the Activity in the data set with Plasma stood at 0.73 µM.
